Source: patent US20220378816A1, “2-BENZYLIDENE HYDRAZINOADENOSINE COMPOUNDS HAVING A2A ADENOSINE RECEPTOR AGONISTIC ACTIVITY” (ACADEMY OF MILITARY MEDICAL SCIENCES, priority 2019, published 2022)
pEC50, pIC50, pKi: −log10 of the molar value. Like-named read-outs stand apart in the source and are kept apart here.

Tests used:
[1] = test system: blood-brain barrier; test: Animal experiment of blood-brain barrier disruption (FITC-Dextran in brain of SD rats); assay type: in vivo
Method: Fluorescein-labeled dextran FITC-Dextran (CAS: 60842-46-8) with molecular weight of 10,000 MW was purchased from TCI (Shanghai) Development Co., Ltd.; PBS solution and experimental animal SD rats were obtained from commercial sources.
FITC-Dextran solutions with six concentration gradients ([…], 10 μg/ml) were prepared with PBS, and standard curve of FITC-Dextran concentration was made by using microplate reader (λex=490 nm, λem=520 nm). Additionally, 10 mg/ml FITC-Dextran solution was prepared, Compound 5 was added to PBS solution to prepare 1 mg/ml solution. 1 ml of 10 mg/ml FITC-Dextran solution and 1 ml of 1 mg/ml Compound 5 in PBS solution were taken and mixed to prepare administration solvent. 1 ml of 10mg/ml FITC-Dextran solution and 1 ml of PBS solution were taken and mixed to prepare blank control solution. 6 SD rats were injected with 2 ml of the administration solvent via tail vein, respectively, while another 6 SD rats were injected with 2 ml of the blank control solution via tail vein. […] The solution to be tested was subjected to fluorescence detection by using the microplate reader (λex=490 nm, λem=520 nm).
The measured fluorescence value by the microplate reader was converted into the corresponding FITC-Dextran average concentration according to the obtained standard curve of FITC-Dextran concentration.

[2] = target: T1, (human) A2A adenosine receptors (Homo sapiens, UniProt P29274); test: Radioligand binding test ([3H]CGS21680 displacement, hA2A HEK-293 cell membranes)
T1 construct: purchased PerkinElmer Research Products (Boston, Mass.); host or cells: HEK-293
T1 sequence (P29274 whole entry): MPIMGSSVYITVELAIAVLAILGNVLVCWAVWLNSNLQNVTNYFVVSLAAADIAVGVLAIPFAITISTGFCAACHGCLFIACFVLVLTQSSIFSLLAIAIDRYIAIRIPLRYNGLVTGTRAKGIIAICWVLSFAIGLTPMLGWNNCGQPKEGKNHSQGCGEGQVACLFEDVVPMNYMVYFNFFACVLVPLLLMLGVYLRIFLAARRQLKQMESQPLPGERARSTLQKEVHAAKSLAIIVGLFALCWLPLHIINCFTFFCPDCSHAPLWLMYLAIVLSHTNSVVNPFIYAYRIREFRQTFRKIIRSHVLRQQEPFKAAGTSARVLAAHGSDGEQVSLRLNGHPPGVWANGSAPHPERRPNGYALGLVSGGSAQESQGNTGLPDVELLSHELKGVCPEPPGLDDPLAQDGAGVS
Method: Cell membranes stably transfected with (human) A2A adenosine receptors were prepared in HEK-293 cells. The cell membranes were obtained from PerkinElmer Research Products (Boston, Mass.).
The A2A adenosine receptors used were all expressed in the cell membranes. […] (final 25 nM) was added to the diluted cell membrane, and mixed well. 50 μL of the prepared dilution solution of cell membrane was transferred to the 384-well Opti-plate containing compound and incubated at 25° C. for 90 minutes. 100 μL of 0.5% Polyethyleneimine solution (PEI) was added to […]-96 GF/B filter plate, and soaked for 90 minutes at 4° C., then 500 μL of washing buffer/well (50 mM Tris-HCl pH 7.4, 154 mM NaCl) was transferred with Cell Harvester to wash the […]-96 GF/B filter plate twice. The mixed system in the Opti-plate was transferred to the washed […]-96 GF/B filter plate, 500 μL of washing buffer/well (50 mM Tris-HCl pH 7.4, 154 mM NaCl) was used to wash the […]-96 GF/B filter plate 9 times. Incubation was performed in 37° C. incubator for 3 minutes. 40 μL of ULTIMA GOLD scintillation solution (Perkin Elmer, Cat #77-16061) was added to each well, CPM (count per minute) value was read by a MicroBeta liquid scintillation counter (PerkinElmer).

[3] = target: human adenosine receptor A2A (Homo sapiens, UniProt P29274); test: Adenosine receptor A2A cAMP test (LANCE Ultra cAMP, hADORA2A-HEK293 cells); assay type: cell-based; settings: for hA2AAR agonist function: cAMP test; for pEC50: stimulating production of cyclic AMP, hADORA2A-HEK293 cells
Sequence of human adenosine receptor A2A (P29274 whole entry): as above
Source text: Experimental reagents and consumables: DMEM/F12, G418, Penicillin-Streptomycin, Versene Solution, HEPES, Hank's Buffered Saline Solution, PBS (pH 7.4, 1×, sterile), FBS, BSA Stabilizer 7.5%, Rolipram, NECA were separately purchased from Gibico, Hyclone and Sigma. LANCE® Ultra cAMP kit (Eu-cAMP tracer, Ulight-anti-cAMP reagent, cAMP detection buffer) and hADORA2A-HEK293 cells were purchased from PerkinElmer Research Products (Boston, Mass.). All other reagents were of analytical grade and obtained from commercial sources. 384-well polypropylene microplate and 384-well solid white plate were purchased from Labcyte and Corning, respectively.
The cells stably expressing human adenosine receptor A2A (hADORA2A-HEK293 cells) were cultured in DMEM/F12 medium containing 10% FBS, 1×Penicillin-Streptomycin and 400 μg/ml G418 in a 37° C. and 5% CO2 environment. Before the experiment, the cells were digested with Versene solution, and the cells were collected by centrifugation at 200 g and room temperature for 5 minutes, and finally resuspended with assay buffer (Hank's buffered saline solution, containing 5 mM HEPES, 0.1% BSA stabilizer and 10 μM Rolipram, pH 7.4). The TECAN automated liquid handling workstation was used to dilute the compound in a 384-well polypropylene microplate with DMSO to 11 concentration points in a 3-fold gradient to prepare the compound source plate, in which the 11 concentration points of the compound were 10 mM, 3.33 mM, 1.11 mM., 0.3 7mM, 0.1 2 mM, 0.041 mM, 0.013 mM, 4.57×10^−3 mM, 1.52×10^−3 mM, 5×10^−4 mM and 1.7×10^−4 mM. The Echo Acoustic Liquid Handler (Labcyte) was used to transfer the test compound from the compound source plate to an assay plate, in which the transfer volume of the compound was 10 nl/well. The hADORA2A-HEK293 cell suspension was diluted with assay buffer to 30,000 cells/ml, and the cell suspension was transferred to the assay plate at a volume of 10 μl/well (300 cells/well). The assay plate was centrifuged at 150 g for 1 minute and pre-incubated at room temperature for 30 minutes. The Eu-cAMP tracer working solution (Eu-cAMP tracer 40 μl, cAMP detection buffer 1.96 ml) (5 μl/well) was added to the assay plate, and then the Ulight-anti-cAMP working solution (13 μl of Ulight-anti-cAMP reagent and 1.95 ml of cAMP detection buffer) (5 µl/well) was added to the assay plate. The assay plate was rotated at 150 g for 30 seconds and incubated at room temperature for 30 minutes. The EnVision multimode plate reader (PerkinElmer) was used determine the level of cyclic adenosine monophosphate in the final solution (λex=320 nm, λem=665 nm & 615 nm). The EC50 (nM) value of the compound interacting with the A2A adenosine receptor to stimulate the production of cyclic adenosine monophosphate was calculated and the A2A receptor agonist titer of the compound was expressed as the EC50 (nM) value.

[4] = read-out: Ki (inhibition constant)

SMILES: Nc1nc(N/N=C/c2ccc(OCc3ccc(F)cc3)cc2)nc2c1ncn2[C@@H]1O[C@H](CO)[C@@H](O)[C@H]1O [Compound 5, (2R,3R,4S,5R)-2-{6-amino-2-{2-{(E)-4-[(4-fluorobenzyl)oxy]benzylidene}hydrazino}-9H-purin-9-yl}-5-(hydroxymethyl)tetrahydrofuran-3,4-diol]
- opening of the blood-brain barrier ([1]; FITC-Dextran co-injected): could open the blood-brain barrier
- FITC-Dextran concentration in brain ([1]; tail vein injection with FITC-Dextran (10,000 MW), brain taken after 30 minutes, average): 0.11 µg/mL
- melting point: 144 °C
- pIC50 [2]: 7.93
- Ki ([2]; calculated from IC50 by Cheng and Prusoff equation, [S] 25 nM, Km […] nM, read-out: Ki (inhibition constant)): 5.5 nM
- hA2AAR agonist function [3]: shown as hA2AAR agonists
- pEC50 [3]: 8.39

SMILES: CCN(CC)c1ccc(/C=N/Nc2nc(N)c3ncn([C@@H]4O[C@H](CO)[C@@H](O)[C@H]4O)c3n2)cc1 [Compound 15, (2R,3R,4S,5R)-2-{6-amino-2-{2-[(E)-4-(diethylamino)benzylidene]hydrazino}-9H-purin-9-yl}-5-(hydroxymethyl)tetrahydrofuran-3,4-diol]
- melting point: 164 °C
- pIC50 [2]: 7.86
- pKi [2, 4]: 8.19
- hA2AAR agonist function [3]: shown as hA2AAR agonists
- pEC50 [3]: 7.75

SMILES: N#Cc1ccc(/C=N/Nc2nc(N)c3ncn([C@@H]4O[C@H](CO)C(O)C4O)c3n2)cc1 (stereo partly shown) [Compound 20]
- melting point: 276 °C
- pIC50 [2]: 7.74
- pKi [2, 4]: 8.07
- pEC50 [3]: 7.82
